How the values were obtained:
U87-MG-luc GBM cell line [1] = test: U87-MG-luc tumors implanted cerebrally in mice, monotherapy; type: in vivo, athymic nude mice; conditions: 30 mg/kg oral QD, 28 days, p=0.0023 on day 28
Description: Male athymic nude mice were injected A) subcutaneously (s.c.) or B) cerebrally (i.e.) with 1×10^5 U87-MG-luc cells in Matrigel. Animals implanted i.e. were imaged to monitor tumor establishment and growth throughout the study using an In Vivo Imaging System (IVIS) once weekly, detecting tumor bioluminescence (BLI) in photons. For animals implanted s.c., tumor growth was monitored twice weekly by caliper measurement and tumor volume calculated using the equation V=(L×W×W)/2, where V is tumor volume, L is tumor length (the longest tumor dimension) and W is tumor width (the longest tumor dimension perpendicular to L). Upon confirmation of tumor establishment, animals were randomly allocated into 3 (A, s.c.) or 2 (B, i.e.) treatment groups (n=8 animals per group) consisting of vehicle (0.5% methycellulose, 1% Tween 80 P.O. and saline I.V.) or Compound of formula (I) [CoF (I)] formulated as a suspension in 0.5% methycellulose and 1% Tween 80. The treatments were administered over a 28 day cycle and compound of formula (I) was administered orally at a dose of either 30 mg/kg (for both A and B) or 60 mg/kg (for A only), once daily (QD)). […] Mortality and observed clinical signs were recorded for individual animals in detail.

T98G GBM cell line = test: Colony formation with radiotherapy, T98G; type: cell-based; conditions: 0.1 μM to 5.0 μM, irradiated at 1, 2 and 4 Gy, p<0.0001
Description: (§1) GBM tumor cells (T98G, LN18, SNB-19 and U251) were grown as an adherent monolayer at 37° C. in a humidified atmosphere (5% CO2, 95% air). For experimental use, tumor cells were detached from culture flasks by a 5-minute treatment with trypsin-versene, in Hanks' medium without calcium or magnesium and neutralized by addition of complete culture medium. Cells were counted and viability assessed using a 0.25% trypan blue exclusion assay. All cell lines were appropriately seeded following the conditions for monolayer colony formation in 6-well plates (Ref #152795, Nunc, Dutscher) in 1.9 ml of cell culture medium, at 3 densities for evaluation of a proclonogenic effect. […]
(§2) Treatments were performed at 24 hours (D1) after seeding by addition of ×20 concentrated compound or vehicle solutions, to obtain final concentrations of 0.1 μM to 5.0 μM of Compound of formula (I) [referred to as CoF (I) in FIG. 3]. […] After 14 days of incubation, colonies were counted after being stained through incubation with 500 μl of a solution of water containing 0.05% (w/v) of methylene blue (Ref. M4159, Sigma) for 2 hours. Colonies were counted using a colony counter pen (Ref #045855, Dutscher, Brumath, France). The Surviving Fraction was calculated for each condition using the equations described below and plotted on a semi-logarithmic graph using the Linear-Quadratic model. […]

U251 GBM cell line = test: Colony formation with radiotherapy, U251; type: cell-based; conditions: 0.1 μM to 5.0 μM, irradiated at 1, 2 and 4 Gy, p=0.6
Description: as §1, §2

SF188 cells = test: ATP-based cell viability assay (CellTiter-Glo 2.0) in control and ATRX-deficient SF188 cells
Description: SF188 cells were transfected with ATRX siRNA (siATRX_1 or siATRX_2) either individually (A) or as a pool (B and C) or control siRNA (siCon) and ATRX deficiency assessed by determining relative ATRX protein levels by western blotting. Control and ATRX-deficient SF188 cells were then treated with compound of formula (I) at a range of concentrations between 0 and 1.5 uM (FIG. 7A) and at 400 nM (FIG. 7B) and drug sensitivities were assessed via an ATP-based cell viability assay or in colony formation assay.
For cell viability assessment, SF188 cells were seeded in 96-well culture plates at 100-500 cells in 100 μl of culture media per well. After overnight incubation, 100 μl of culture media containing compound of formula (I) was added to each well at the desired final concentration. After 72 h, cell viability was assessed by CellTiter-Glo 2.0 according to the manufacturer's instructions. Each condition was tested in triplicate or quadruplicate, and the average viability is presented as a percentage of vehicle-treated cells. For colony formation assessment (FIG. 7C), SF188 cells were seeded on a 6-well plate at 100 cells per well in 1 ml of culture media. After overnight incubation, 1 ml of culture media containing compound of formula (I) was added to each well at the desired final concentrations up to 400 nM. At 10 days post-treatment, cell colonies were fixed with 70% ethanol for 30 min, washed with distilled water, and stained with Coomassie Blue. The number of colonies in each well was counted manually. Each colony consisted of >50 cells (corresponds to six doublings from a single cell). Colony-forming efficiency was determined by normalizing the colony numbers to the vehicle-treated cells.

U87-MG-luc GBM cell line [2] = test: U87-MG-luc tumors implanted subcutaneously in mice, monotherapy; type: in vivo; conditions: for Tumor volume vs vehicle controls at end of treatment: subcutaneous, 28 days
Description: Male athymic nude mice were injected A) subcutaneously (s.c.) or B) cerebrally (i.e.) with 1×10^5 U87-MG-luc cells in Matrigel. Animals implanted i.e. were imaged to monitor tumor establishment and growth throughout the study using an In Vivo Imaging System (IVIS) once weekly, detecting tumor bioluminescence (BLI) in photons. For animals implanted s.c., tumor growth was monitored twice weekly by caliper measurement and tumor volume calculated using the equation V=(L×W×W)/2, where V is tumor volume, L is tumor length (the longest tumor dimension) and W is tumor width (the longest tumor dimension perpendicular to L). Upon confirmation of tumor establishment, animals were randomly allocated into 3 (A, s.c.) or 2 (B, i.e.) treatment groups (n=8 animals per group) consisting of vehicle (0.5% methycellulose, 1% Tween 80 P.O. and saline I.V.) or Compound of formula (I) [CoF (I)] formulated as a suspension in 0.5% methycellulose and 1% Tween 80. The treatments were administered over a 28 day cycle and compound of formula (I) was administered orally at a dose of either 30 mg/kg (for both A and B) or 60 mg/kg (for A only), once daily (QD)). During routine monitoring, the animals were checked for any effects of tumor growth and treatments on behavior such as mobility, food and water consumption, body weight gain/loss 3 times a week, eye/hair matting and any other abnormalities. Mortality and observed clinical signs were recorded for individual animals in detail.

## Cc1cc(Nc2ncc3c(n2)N(C)CN(c2c(Cl)cccc2Cl)C3=O)ccc1C1CCN(C)CC1 [Compound of formula (I)]
U87-MG-luc GBM cell line [1]
  Tumor size (relative BLI) vs vehicle controls at end of treatment: significantly smaller tumors than vehicle controls
T98G GBM cell line
  Effect on radiotherapy (surviving fraction, colony formation): significantly increased effect of radiotherapy
U251 GBM cell line
  Effect on radiotherapy (surviving fraction, colony formation): not significant
SF188 cells; 0 to 1.5 uM, 72 h, CellTiter-Glo 2.0
  Viability of SF188 cells: significantly reduced the viability of SF188 cells
SF188 cells; 400 nM, p<0.01
  Cell viability of ATRX-deficient SF188 cells: significantly reduced
SF188 cells; cell viability, 72 h
  IC50 in SF188 cells with ATRX siRNA relative to control siRNA: less than half of control siRNA
U87-MG-luc GBM cell line [2]; all dose levels (30 or 60 mg/kg QD, 28 days), s.c. and cerebral models
  Body weight loss / tolerability: No significant body weight loss
U87-MG-luc GBM cell line [2]; 30 mg/kg oral QD, p=0.0009 on day 28
  Tumor volume vs vehicle controls at end of treatment: significantly smaller tumors than vehicle controls
U87-MG-luc GBM cell line [2]; 60 mg/kg oral QD, p<0.0001 on day 28
  Tumor volume vs vehicle controls at end of treatment: significantly smaller tumors than vehicle controls
